Measured values taken from US6368831B1, “Treatment of hyperproliferative disorders” (Childrens Hospital Los Angeles, priority 1998, dated 2002).

What was measured:
[1] = test system: CHLA-90 neuroblastoma cells; experiment: DIMSCAN cytotoxicity assay, CHLA-90; format: cell-based; settings: HPR 3-10 μM, BOC-d-fmk 40 μM, +24 hours, P=0.002 at 3 μM, P<0.001 at >3 μM
Description: Cytotoxicity is determined using the DIMSCAN assay system (R. Proffitt et al., Cytometry 24, 204-213 (1996); T. Frgala et al., Proc. AACR, 36, 303 (1995). The system employs digital imaging microscopy to quantify viable cells, which selectively accumulate fluorescein diacetate to become brightly fluorescent. The system is capable of measuring cytotoxicity over a 4-5 log dynamic range by quenching the residual fluorescence of dead and dying cells with eosin Y and quantifying the total fluorescence of viable cells using digital thresholding. Measured fluorescence is directly proportionate to the number of viable cells. A comparison of the total fluorescence of a drug-treated cell population to the fluorescence of a similar number of untreated cells yields a survival fraction. In brief, 5000 to 10,000 SK-N-RA neuroblastoma cells/well are replicate plated into 60 wells of a 96-well tissue culture plate in 0.1 cc media and allowed to attach overnight. Drug(s) are then added in 0.05 cc media to the final concentrations indicated. There are 12 wells treated per drug concentration. Twelve wells receive drug-vector only to the appropriate final concentration and serve as controls for the plate. Cells are incubated for 96-120 hours at 37° C. in 5% CO2. Fluorescein diacetate is then added to each well in 0.05 cc media to a final concentration of 8 microgram/cc. Cells are incubated for a further 15 minutes at 37° C. and 0.03 cc of 0.5% eosin Y is added to each well. Total fluorescence of viable cells is then measured by digital imaging microscopy.
Methods. Cells were added in 100 μL whole medium per well to 96-well microplates for DIMSCAN cytotoxicity assay as previously described. Cell lines used were the neuroblastoma cell lines CHLA-90 and LAN-6. At Time=0, either all-trans-retinoic acid (ATRA), 13-cis-retinoic acid (13-cis-RA) or a combination of retinoid plus safingol at a 3:1 molar ratio were added in 50 μL whole medium. Plates were incubated and assayed for cytotoxicity by DIMSCAN assay at +120 for CHLA-90 cells and+144 hours for LAN-6 cells.
Methods. To determine the manner in which 4-HPR or HPR+safingol induced cell death in neuroblastoma cells, morphological evidence of apoptosis and/or necrosis was assessed in CHLA-90 cells in the presence or absence of a specific as inhibitor of apoptosis, the neural cell-penetrant, pan-caspase enzyme inhibitor, BOC-d-fink (Enzyme Systems Products, Livermore, Calif.). […] CHLA-90 cells were plated in duplicate in whole medium in Lab Tek chamber slides (Nunc, Naperville, Ill.), allowed to attach for 24 hours, and then treated in the presence or absence of BOC-d-fink (40 μM) for one hour prior to treatment with HPR (10 μM). Control cells were treated with vehicle solvents of 0. 1% ethanol (4-HPR) and/or 0.2% DMSO (BOC-d-fink). Morphological features of apoptosis (DNA condensation and/or apoptotic bodies) were visualized in undetached cells at +24 or +48 hours using blue nuclear fluorescence induced by the supravital DNA stain Hoechst 33342 (10 μg/ml for 30 mins at 37° C.), while necrotic cells and advanced apoptotic cells were recognized by red fluorescent staining with propidium iodide (0.5 μM/ml). Red fluorescently-staining cells with condensed nuclear remnants were scored as apoptotic cells. For cells assayed at +48 hours, additional BOC-d-fink (40 μM) or appropriate control vehicle was added at +24 hours. Cells were observed using filters appropriate for each dye sequentially on an Olympus Vanox epifluorescence microscope. Mutiple random fields of cells (of ˜100-500 cells each) were counted and photographed for viable cells, apoptotic cells, and necrotic cells. To further examine cells treated with HPR, cytotoxicity assays were performed on CHLA-90 cells pretreated with or without 40 μM BOC-d-fmk for one hour prior to the addition of 4-HPR (3-10 μM) and assayed at +24 hours by DIMSCAN assay to assess the effect of caspase inhibition on viability. […]

[2] = test system: CHLA-90 neuroblastoma cell line; experiment: Ceramide assay, CHLA-90; format: cell-based, human; settings: CHLA-90 (drug resistant); 10 μM fenretinide; 20% O2
Description: The ceramide assay is carried out as follows. 500,000 neuroblastoma cells/well are replicate plated in six-well tissue culture plates and allowed to attach overnight. Tritiated (3H)-palmitic acid (a lipid precursor) is added to 1 microcure/cc and fenretinide added to a final concentration of 10 uM. Control cells receive tritiated label but no drug. At the indicated time, cells are harvested from triplicate wells, washed, and lipids extracted with methanol, acetic acid, water, and chloroform. The organic layer (containing the tritium label incorporated into lipids) is isolated and dried down by a nitrogen stream. The lipid sample is dissolved in chloroform: methanol and 10% of each sample assayed to estimate the total tritium in the lipid sample. The lipids in sample fractions, together with unlabeled ceramide standards, are then separated by thin layer chromatography and the plates developed by iodine vapor. The region of the plate corresponding to the ceramide standard is scraped and the tritium of the co-migrating sample ceramide is measured. Total sample ceramide is then expressed as percent tritium label in ceramide versus tritium in total lipid. […]

MCF7/GCS cells = experiment: DIMSCAN cytotoxicity assay, MCF7/GCS tet OFF vs tet ON; format: cell-based, human; settings: 96 hours, P<0.005 at >6 μM HPR, safingol 0-4 μM
From the text: We have shown that HPR generates ceramide in neuroblastoma tumor cell lines in a dose- and time-depenent manner (B. Maurer et al., J. Natl. Cancer Inst. (1999)(in press)). Glucosylceramide (GC) is a nontoxic metabolite of ceramide. Ceramide is converted into glucosylceramide by the action of glucosylceramide synthase (GCS). Glucosylceramide synthase (GCS) has been transfected into human MCF7 breast cancer cells in a tetracycline-inducible expression construct in the MCF7/GCS cell line (Y. Liu et al., J. Biol. Chem. 274:1140-46 (1999)). […] We have exposed MCF7/GCS cells to HPR, safingol and HPR+safingol in the absence, and in the presence, of doxycycline.
Methods. MCF7/GCS cells were plated and incubated in RPMI medium with 10% fetal bovine serum and 200 microgram/ml Hygromycin B (tet OFF) for DIMSCAN cytotoxicity assays as previously described. To increase GCS expression, MCF7/GCS cells were also incubated in the above medium with 3 microgram/ml doxycycline (tet ON) for three days prior to replating them for DIMSCAN cytotoxicity assay. DIMSCAN assays with doxycycline-induced (tet ON) cells also included 3 microgram/ml doxycycline in the medium. Both “tet OFF” and “tet ON” MCF7/GCS cells were exposed to HPR, safingol and HPR+safingol (3:1 molar ratio) for 96 hours and assayed for survival fraction by DIMSCAN as previously described.

## CC1=C(/C=C/C(C)=C/C=C/C(C)=C/C(=O)Nc2ccc(O)cc2)C(C)(C)CCC1 [HPR, all-trans-N-(4-hydroxyphenyl)retinamide]
[1]
  cytotoxicity in the presence of BOC-d-fmk: significant cytotoxicity
[2]
  ceramide generation: generate ceramide
MCF7/GCS cells
  change of cytotoxicity in tet ON (doxycycline, GCS induced) compared to tet OFF cells: significantly decreased
